From US20220380338A1, “CYCLOALKYL 3-OXOPIPERAZINE CARBOXAMIDES AND CYCLOHETEROALKYL 3-OXOPIPERAZINE CARBOXAMIDES AS NAV1.8 INHIBITORS” (Merck Sharp & Dohme LLC, priority 2021, published 2022)

Molecular target: T1, human NaV1.8 (Homo sapiens, UniProt Q9Y5Y9)
T1 construct: expressed in transfected cells
Assay: Nav1.8 Qube® Assay (automated 384-well patch-clamp, inhibition of sodium current)
Type: cell-based
Conditions: human NaV1.8 channels stably expressed in HEK 293 cells, room temperature
Description: Compounds were tested on human NaV1.8 and NaV1.5 channels stably expressed in human embryo kidney (HEK) 293 cells. Sodium current measurements on Qube® were conducted as follows: automated 384-well patch-clamp assays on the Qube® platform (Sophion Biosciences) were used to measure the inhibition of sodium flow through human NaV1.8 and NaV1.5 channels. Whole-cell voltage-clamp recordings were performed in QChips® (Sophion Biosciences) at room temperature. NaV1.8 current measurements on Qube® were obtained as follows: NaV1.8 currents were elicited with a 10 second 1 Hertz (Hz) pulse train from a holding potential of −90 millivolts (mV), delivered to the cells once per minute in the control condition (DMSO only) and after compound addition. The 1 hertz pulse train stimulation consisted of ten test pulses to 10 millivolt (mV) for 20 milliseconds (ms), each of which was followed by a 980 millisecond repolarization to −67 millivolts. At the end of the 10 second pulse train stimulation, a 5 second hyperpolarization step to −100 millivolt (mV) was used to recover NaV1.8 from fast inactivation. The peak currents elicited by the 1st and 10th test pulses were used to determine IC50 values for resting inhibition and inactivated state inhibition. NaV1.5 current measurements on Qube® were obtained as follows: NaV1.5 currents were elicited with a 20 second 3 Hertz pulse train in the control condition (DMSO only) and after compound addition. The pulse train consisted of sixty 20 millisecond test pulses to 0 millivolt from a holding potential of −80 millivolt (mV). The average peak currents elicited by the last 3 test pulses were used to determine IC50 values for NaV1.5 inhibition.
The following buffers were used for the Qube® recordings: External buffer for NaV1.8 Qube® recording: 150 NaCl, 2 CaCl2, 5 KCl, 1 Mg Cl2, 10 HEPES, 12 Dextrose; External buffer for Qube® NaV1.5 recording: 120 N-Methyl-D-Glucamine, 40 NaCl, 1 KCl, 2.7 CaCl2, 5 HEPES, 0.5 MgCl2; and Internal buffer for Qube® recording: 120 CsF, 30 CsCl, 10 EGTA, 5 HEPES, 5 NaF, 2 MgCl2.
For all Qube® experiments offline analysis was used to determine percent inhibition as a function of drug concentration. IC50 values were determined by fitting to the Hill equation.

T1 sequence (Q9Y5Y9 whole entry): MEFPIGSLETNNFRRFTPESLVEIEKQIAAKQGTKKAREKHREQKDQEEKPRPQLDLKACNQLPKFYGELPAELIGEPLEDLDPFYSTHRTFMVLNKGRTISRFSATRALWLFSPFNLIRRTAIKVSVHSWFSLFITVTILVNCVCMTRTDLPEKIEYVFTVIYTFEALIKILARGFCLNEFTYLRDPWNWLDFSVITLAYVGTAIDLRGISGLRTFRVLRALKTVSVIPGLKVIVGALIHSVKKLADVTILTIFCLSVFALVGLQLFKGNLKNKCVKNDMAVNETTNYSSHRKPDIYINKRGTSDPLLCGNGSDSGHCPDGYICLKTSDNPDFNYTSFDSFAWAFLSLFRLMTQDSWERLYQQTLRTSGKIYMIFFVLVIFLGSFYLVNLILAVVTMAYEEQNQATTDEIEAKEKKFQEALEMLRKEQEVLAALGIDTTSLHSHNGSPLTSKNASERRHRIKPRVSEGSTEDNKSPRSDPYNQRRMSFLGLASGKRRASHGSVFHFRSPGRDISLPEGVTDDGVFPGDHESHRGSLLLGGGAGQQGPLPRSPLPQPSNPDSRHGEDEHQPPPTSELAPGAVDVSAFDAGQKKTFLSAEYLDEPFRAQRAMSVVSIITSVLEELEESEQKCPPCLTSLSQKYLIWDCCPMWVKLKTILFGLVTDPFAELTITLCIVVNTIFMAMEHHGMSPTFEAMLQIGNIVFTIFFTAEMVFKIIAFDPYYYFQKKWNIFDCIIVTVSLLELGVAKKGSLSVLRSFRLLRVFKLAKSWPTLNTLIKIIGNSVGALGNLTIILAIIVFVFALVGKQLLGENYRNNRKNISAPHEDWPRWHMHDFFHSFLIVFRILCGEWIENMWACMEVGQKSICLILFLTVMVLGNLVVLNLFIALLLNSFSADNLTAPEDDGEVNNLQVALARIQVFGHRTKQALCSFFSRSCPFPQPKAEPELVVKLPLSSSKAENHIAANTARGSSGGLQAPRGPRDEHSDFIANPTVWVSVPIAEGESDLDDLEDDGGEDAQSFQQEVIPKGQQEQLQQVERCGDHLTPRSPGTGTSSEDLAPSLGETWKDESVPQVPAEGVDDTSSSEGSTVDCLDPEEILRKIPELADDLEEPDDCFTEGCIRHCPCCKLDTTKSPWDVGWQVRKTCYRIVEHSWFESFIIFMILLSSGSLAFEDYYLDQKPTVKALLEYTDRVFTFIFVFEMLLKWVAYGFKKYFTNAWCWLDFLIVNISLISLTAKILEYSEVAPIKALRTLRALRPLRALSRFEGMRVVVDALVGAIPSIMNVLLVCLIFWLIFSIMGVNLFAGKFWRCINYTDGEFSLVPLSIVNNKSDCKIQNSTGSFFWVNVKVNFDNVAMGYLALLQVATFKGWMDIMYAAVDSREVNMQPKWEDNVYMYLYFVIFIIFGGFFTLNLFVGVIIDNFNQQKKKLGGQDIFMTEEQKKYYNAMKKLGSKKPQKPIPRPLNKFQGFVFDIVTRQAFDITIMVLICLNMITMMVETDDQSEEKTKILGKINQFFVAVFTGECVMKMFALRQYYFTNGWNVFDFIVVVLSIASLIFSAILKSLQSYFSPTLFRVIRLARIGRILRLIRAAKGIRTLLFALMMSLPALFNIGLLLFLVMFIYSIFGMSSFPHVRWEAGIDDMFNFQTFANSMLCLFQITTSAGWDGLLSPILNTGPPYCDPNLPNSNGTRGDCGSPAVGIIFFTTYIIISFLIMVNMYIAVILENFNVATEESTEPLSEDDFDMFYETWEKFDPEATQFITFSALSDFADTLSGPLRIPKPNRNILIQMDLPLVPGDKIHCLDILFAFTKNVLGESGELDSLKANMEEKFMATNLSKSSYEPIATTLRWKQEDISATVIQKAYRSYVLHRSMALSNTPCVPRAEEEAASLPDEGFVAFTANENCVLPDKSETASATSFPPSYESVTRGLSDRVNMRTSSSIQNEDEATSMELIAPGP

| Structure (SMILES) | IC50 |
| --- | --- |
| O=C1CN(C(=O)N[C@H](c2ccc(F)c(Cl)c2)C2CCC(C(F)(F)F)CC2)CCN1 (single isomer, unassigned) [Example 1A] | 3.5 nM |
| O=C1CN(C(=O)N[C@H](c2ccc(F)c(Cl)c2)C2CCC(C(F)(F)F)CC2)CCN1 (single isomer, unassigned) [Example 1B] | 183 nM |
| O=C1CN(C(=O)NC(c2ccc(F)c(Cl)c2)C2CC3CCC(C2)C3(F)F)CCN1 (single isomer, unassigned) [Example 2A, N-((R or S)-(3-chloro-4-fluoro-phenyl)(8,8-difluoro-bicyclo[3.2.1]octan-3-yl)methyl)-3-oxopiperazine-1-carboxamide] | 65.5 nM |
| O=C1CN(C(=O)NC(c2ccc(F)c(Cl)c2)C2CC3CCC(C2)C3(F)F)CCN1 (single isomer, unassigned) [Example 2B, N-((S or R)-(3-chloro-4-fluoro-phenyl)(8,8-difluroo-bicyclo[3.2.1]octan-3-yl)methyl)-3-oxopiperazine-1-carboxamide] | 410 nM |
| C[C@@H]1C(=O)NCCN1C(=O)NC(c1ccc(F)c(Cl)c1)C1CC2CCC(C1)C2(F)F (single isomer, unassigned) [Example 3A, (2R)-N-((R or S)-(3-chloro-4-fluoro-phenyl)(8,8-difluoro-bicyclo[3.2.1]octan-3-yl)methyl)-2-methyl-3-oxo-piperazine-1-carboxamide] | 14.8 nM |
| C[C@@H]1C(=O)NCCN1C(=O)NC(c1ccc(F)c(Cl)c1)C1CC2CCC(C1)C2(F)F (single isomer, unassigned) [Example 3B, (2R)-N-((S or R)-(3-chloro-4-fluoro-phenyl)(8,8-difluoro-bicyclo[3.2.1]octan-3-yl)methyl)-2-methyl-3-oxo-piperazine-1-carboxamide] | 148 nM |

Continued, values first:

| IC50 | Structure (SMILES) |
| --- | --- |
| 89.3 nM | O=C1CN(C(=O)N[C@H](c2ccc(Cl)cc2)C2CCC(C(F)(F)F)CC2)CCN1 (single isomer, unassigned) [Example 4A, N-((R or S)-(4-chlorophenyl)(trans-4-(trifluoromethyl)-cyclohexyl)methyl)-3-oxopiperazine-1-carboxamide] |
| 288 nM | O=C1CN(C(=O)N[C@H](c2ccc(Cl)cc2)C2CCC(C(F)(F)F)CC2)CCN1 (single isomer, unassigned) [Example 4B, N-((S or R)-(4-chlorophenyl)(trans-4-(trifluoromethyl)-cyclohexyl)methyl)-3-oxopiperazine-1-carboxamide] |
| 40.9 nM | C[C@@H]1C(=O)NCCN1C(=O)N[C@H](c1ccc(F)c(Cl)c1)C1CCC(C(F)(F)F)CC1 (single isomer, unassigned) [Example 5A, (2R)-N-((R or S)-(3-chloro-4-fluoro-phenyl)(trans-4-(trifluoromethyl)cyclo-hexyl)methyl)-2-methyl-3-oxo-piperazine-1-carboxamide] |
| 4.2 nM | C[C@@H]1C(=O)NCCN1C(=O)N[C@H](c1ccc(F)c(Cl)c1)C1CCC(C(F)(F)F)CC1 (single isomer, unassigned) [Example 5B, (2R)-N-((S or R)-(3-chloro-4-fluoro-phenyl)(trans-4-(tri-fluoromethyl)cyclo-hexyl)methyl)-2-methyl-3-oxo-piperazine-1-carboxamide] |
| 232 nM | C[C@@H]1C(=O)NCCN1C(=O)NC(c1cc(F)c(F)c(F)c1)[C@H]1CC[C@H](C(F)(F)F)CC1 (single isomer, unassigned) [Example 6A, (R)-2-methyl-3-oxo-N-((R or S)-(trans-4-(trifluoromethyl)cyclo-hexyl)(3,4,5-tri-fluorophenyl)methyl) piperazine-1-carboxamide] |
| 35.4 nM | C[C@@H]1C(=O)NCCN1C(=O)NC(c1cc(F)c(F)c(F)c1)[C@H]1CC[C@H](C(F)(F)F)CC1 (single isomer, unassigned) [Example 6B, (R)-2-methyl-3-oxo-N-((S or R)-(trans-4-(trifluoromethyl)cyclo-hexyl)(3,4,5-tri-fluorophenyl)methyl) piperazine-1-carboxamide] |
